Test systems include SK-MEL-5 melanoma; UACC-257 melanoma; ACHN renal; DU-145 prostate; SK-MEL-2 melanoma; XF 498 CNS; DMS 273 small cell lung; SNB-78 CNS; LXFL 529 NSCLC; M19-MEL melanoma; HOP-18 NSCLC; DMS 114 small cell lung; KM20L2 colon; DLD-1 colon; RXF-631 renal.
Assay in all cases: growth of human tumour cells (NCI), 48 h

“And” between values parts separate entries of the source, which are not always exact repeats. Equal values may be shown once.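 Exposure lasted 48 hours, with cells grown in 96-well plates and compounds tested at five concentrations. GI50: concentration for 50% inhibition of growth. Definition used: TGI = concentration required for complete inhibition of growth.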

On to `Cc1ccccc1C1CC(=O)CC(c2ccccc2C)C12C(=O)NC(=S)NC2=O` (stereo not drawn), for which the TGI in the assay with SK-MEL-5 melanoma was 32.7 µM; in the assay with UACC-257 melanoma, 52.4 µM; with ACHN renal, 38.6 µM; in the assay on DU-145 prostate, above 100 µM; with SK-MEL-2 melanoma, 40.3 µM.
Regarding `O=C1/C(=C/c2ccc(OC(=O)c3ccc(Cl)cc3)cc2)CCC/C1=C\c1ccc(OC(=O)c2ccc(Cl)cc2)cc1`, the TGI in the assay on SK-MEL-5 melanoma, in the assay with UACC-257 melanoma, in the assay with ACHN renal, in the assay with DU-145 prostate and in the assay with SK-MEL-2 melanoma was above 100 µM each time.
As to `CN(C)CCN=C1Nc2ccccc2C(=O)N2CSCC12` (stereo not drawn), the TGI with SK-MEL-5 melanoma, in the assay on UACC-257 melanoma, in the assay with ACHN renal, with DU-145 prostate and in the assay with SK-MEL-2 melanoma was above 100 µM each time.
As to `CC1(C)N([O-])[N+](=O)C1(Br)c1ccccc1` (stereo not drawn), the TGI in the assay with SK-MEL-5 melanoma, in the assay with UACC-257 melanoma, with ACHN renal, with DU-145 prostate and in the assay on SK-MEL-2 melanoma was above 100 µM each time.
As for `O=C(NN1C(=O)C(Cl)C1c1cccc(Cl)c1)c1ccccc1O` (stereo not drawn), the TGI in the assay on XF 498 CNS is 86.7 µM; in the assay with SK-MEL-5 melanoma, above 100 µM; in the assay on UACC-257 melanoma, above 100 µM; in the assay on DMS 273 small cell lung, above 100 µM; in the assay on ACHN renal, above 100 µM; in the assay with SNB-78 CNS it was above 100 µM. Also, the TGI was above 100 µM in the assay on LXFL 529 NSCLC, above 100 µM with SK-MEL-2 melanoma, above 100 µM with M19-MEL melanoma and 80.7 µM with HOP-18 NSCLC.
As to `Cc1ccc(S(=O)(=O)NC(=O)NCC(N)=O)cc1`, the TGI in the assay on SK-MEL-5 melanoma, in the assay with UACC-257 melanoma, in the assay on ACHN renal, in the assay on DU-145 prostate and in the assay on SK-MEL-2 melanoma was above 100 µM each time.
Turning to `O=S1(=O)c2ccccc2-c2nccc3ccnc1c23`, the TGI with SK-MEL-5 melanoma is 27.7 µM; with UACC-257 melanoma, above 100 µM; with ACHN renal it was 85.3 µM; with DU-145 prostate it was above 100 µM; in the assay with SK-MEL-2 melanoma, above 100 µM.
In the case of `Nc1ncc(N)c(NCC2(CO)CC(CCc3ccccc3)C2)n1` (stereo not drawn), the TGI came out at 14 µM in the assay with SK-MEL-5 melanoma; 22.8 µM with UACC-257 melanoma; 24.5 µM with ACHN renal; 24.2 µM in the assay with DU-145 prostate; 23 µM in the assay with SK-MEL-2 melanoma.
As to `CCOC(=O)CNC(=O)CNC(=O)CNC(=O)CNNc1c(OCc2ccccc2)c(=O)c1=O`, the TGI with SK-MEL-5 melanoma, in the assay with UACC-257 melanoma, in the assay with ACHN renal, in the assay with DU-145 prostate and in the assay on SK-MEL-2 melanoma was above 100 µM throughout.
Turning to `CC(=O)c1sc2n(C)c(=O)c3ccccc3[n+]2c1C`, the TGI in the assay on SK-MEL-5 melanoma, with UACC-257 melanoma, with ACHN renal, in the assay with DU-145 prostate and with SK-MEL-2 melanoma was above 100 µM in each case.
With `O=[N+]([O-])c1cc(Cl)ccc1S(=O)(=O)c1ccc(Cl)cc1[N+](=O)[O-]`, the TGI in the assay with DMS 114 small cell lung came to 23.9 µM; in the assay with SK-MEL-5 melanoma it was 27.7 µM; in the assay on UACC-257 melanoma, 26.7 µM; in the assay with DMS 273 small cell lung, 27.2 µM; with ACHN renal, 29.7 µM; in the assay on KM20L2 colon it was 31.3 µM. Also, the TGI with SNB-78 CNS stood at 34.7 µM; in the assay with LXFL 529 NSCLC, 27.2 µM; in the assay with SK-MEL-2 melanoma, 33 µM; in the assay on M19-MEL melanoma, 28.7 µM; with DLD-1 colon, 29.4 µM; in the assay on HOP-18 NSCLC, 30.4 µM.
For the compound `COCCNC1CCC(=O)c2[nH]c3ccccc3c21` (stereo not drawn), the TGI in the assay with SK-MEL-5 melanoma, in the assay on UACC-257 melanoma, with ACHN renal, with DU-145 prostate and with SK-MEL-2 melanoma was above 100 µM each time.
For `CCOC(=O)CON=c1c2ccccc2ccc2ccccc12`, the TGI with SK-MEL-5 melanoma, in the assay on UACC-257 melanoma, in the assay with ACHN renal, in the assay on DU-145 prostate and in the assay on SK-MEL-2 melanoma was above 100 µM in each case.
As for `C=C1C(=O)OC2/C=C(\C)CC/C=C(\C)CC(OC(=O)/C(=C/CO)CO)[C@@H]12` (stereo partly drawn), the TGI was 26.1 µM in the assay on SK-MEL-5 melanoma; 24.2 µM with UACC-257 melanoma; 19.3 µM in the assay with ACHN renal; 42.3 µM in the assay on DU-145 prostate; 34.6 µM in the assay with SK-MEL-2 melanoma.
Consider `O=c1[nH]cc(COCC(O)CO)c(=O)[nH]1` (stereo not drawn), for which the TGI in the assay with DMS 114 small cell lung, in the assay with XF 498 CNS, in the assay on SK-MEL-5 melanoma, in the assay on RXF-631 renal, in the assay with UACC-257 melanoma and in the assay on DMS 273 small cell lung was above 100 µM each time. In addition, the TGI in the assay with ACHN renal, in the assay with KM20L2 colon, with SNB-78 CNS, in the assay with LXFL 529 NSCLC, with SK-MEL-2 melanoma and in the assay with M19-MEL melanoma was above 100 µM each time. The TGI in the assay on DLD-1 colon and with HOP-18 NSCLC was above 100 µM each time.
Turning to `C=CC[C@@]12CCC(=O)C=C1CCCC2=O`, the TGI in the assay with SK-MEL-5 melanoma, in the assay with UACC-257 melanoma, with ACHN renal, with DU-145 prostate and in the assay with SK-MEL-2 melanoma was above 100 µM in each case.
Turning to `C=CCN1C(=O)/C(=C/c2ccc(OC)cc2)N=C1SC1OC(COC(C)=O)C(OC(C)=O)C(OC(C)=O)C1OC(C)=O` (stereo not drawn), the TGI with SK-MEL-5 melanoma is 45.2 µM and > 100 µM; in the assay with UACC-257 melanoma, 45.9 µM and > 100 µM; in the assay on ACHN renal it was 32.3 µM and > 100 µM; in the assay with DU-145 prostate, 39.2 µM and > 100 µM; in the assay on SK-MEL-2 melanoma, 54.8 µM and > 100 µM. The GI50 with ACHN renal is 15.4 µM and 77.3 µM; in the assay on SK-MEL-2 melanoma, 21.1 µM and 51.7 µM.

For the origin of these results see PubChem BioAssay (NCI).
